pIC50: −log10 of the molar value. Counter-ions that a name gives are not always drawn.

The target of the test is T1, acetylcholinesterase (Mus musculus, UniProt P21836).
T1 construct: The mouse brain was homogenised by means of a 5-fold amount of a 100 mM phosphate buffer (pH 8.0) to prepare an enzyme sample; from tissue; host or cells: brain of male ddY mice, 5 to 7 weeks old (Japan SLC)
T1 sequence (P21836 32-614): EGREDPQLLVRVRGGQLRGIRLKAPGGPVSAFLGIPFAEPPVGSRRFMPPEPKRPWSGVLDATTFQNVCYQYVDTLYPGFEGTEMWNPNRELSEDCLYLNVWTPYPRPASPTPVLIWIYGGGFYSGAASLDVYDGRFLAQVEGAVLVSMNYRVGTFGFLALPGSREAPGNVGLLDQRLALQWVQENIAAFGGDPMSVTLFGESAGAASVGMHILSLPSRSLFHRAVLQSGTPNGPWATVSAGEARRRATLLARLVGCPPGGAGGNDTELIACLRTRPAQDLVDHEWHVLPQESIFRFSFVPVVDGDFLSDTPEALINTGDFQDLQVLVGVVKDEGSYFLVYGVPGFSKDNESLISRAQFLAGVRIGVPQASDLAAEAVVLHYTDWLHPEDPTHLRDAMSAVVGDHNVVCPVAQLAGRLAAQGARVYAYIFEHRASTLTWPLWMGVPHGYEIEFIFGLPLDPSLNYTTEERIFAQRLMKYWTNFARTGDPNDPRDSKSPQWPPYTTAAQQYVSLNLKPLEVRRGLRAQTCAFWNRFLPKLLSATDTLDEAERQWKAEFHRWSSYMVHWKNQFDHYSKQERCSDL
In words: Assay of acetylcholinesterase inhibitory activity (Elman's method, mouse brain homogenate). It is filed as biochemical.
Compound `Cn1cc(C(=O)CCC2CCN(Cc3cccc(F)c3)CC2)c2ccccc21` [Compound No. 1-78, 1-Methyl-3-{3-[1-(3-fluorobenzyl)-4-piperidyl]propionyl}indole] gave a pIC50 of 8.10.

As to `Cn1cc(C(=O)CCC2CCN(Cc3cccs3)CC2)c2ccccc21` [Compound No. 1-116, 1-Methyl-3-{3-[1-(2-thienylmethyl)-4-piperidyl]propionyl}indole], the pIC50 is 8.00.

`Cn1cc(C(=O)CCC2CCN(Cc3cccc(Cl)c3)CC2)c2ccccc21` [Compound No. 1-85, 1-Methyl-3-{3-[1-(3-chlorobenzyl)-4-piperidyl]propionyl}indole hydrochloride] showed a pIC50 of 8.19.

As to `Cn1cc(C(=O)CCC2CCN(Cc3ccccc3)CC2)c2ccccc21` [Compound No. 1-4, 1-Methyl-3-[3-(1-benzyl-4-piperidyl)propionyl]indole oxalate], the pIC50 was 8.00.

With `Cn1nc(C(=O)CCC2CCN(Cc3cccc(Cl)c3)CC2)c2ccccc21` [Compound No. 2-99, 1-Methyl-3-{3-[1-(3-chlorobenzyl)-4-piperidyl]-propionyl}indazole hydrochloride], the pIC50 is 7.50. Against the preceding compound, the pIC50 is 0.50 log units lower.

`Cn1cc(C(=O)CCC2CCN(Cc3cccc(F)c3)CC2)c2cc(F)ccc21` [Compound No. 1-313, 1-Methyl-3-{3-[1-(3-fluorobenzyl)-4-piperidyl]propionyl}-5-fluoroindole] gave a pIC50 of 8.70.

Take `Cn1cc(C(=O)CCC2CCN(Cc3ccccc3)CC2)c2ccc(Cl)cc21` [Compound No. 1-30, 1-Methyl-3-[3-(1-benzyl-4-piperidyl)propionyl]-6-chloroindole]: the pIC50 is 8.05.

As for `CCc1ccc2c(C(=O)CCC3CCN(Cc4ccccc4)CC3)cn(C)c2c1` [1-16], the pIC50 was 8.40.

Compound `Cn1cc(C(=O)CCC2CCN(Cc3ccccc3)CC2)c2ccccc21` [Compound No. 1-2, 1-Methyl-3-[3-(1-benzyl-4-piperidyl)propionyl]indole] showed a pIC50 of 8.48.

`Cn1nc(C(=O)CCC2CCN(Cc3ccccc3Cl)CC2)c2ccccc21` [Compound No. 2-96, 1-Methyl-3-{3-[1-(2-chlorobenzyl)-4-piperidyl]propionyl}indazole hydrochloride] had a pIC50 of 7.86.

With `Cn1nc(C(=O)CCC2CCN(Cc3ccccc3)CC2)c2ccccc21` [Compound No. 2-2, 1-Methyl-3-[3-(1-benzyl-4-piperidyl)propionyl]indazole], the pIC50 was 8.00.

With `Cn1nc(C(=O)C=CC2CCN(Cc3ccccc3)CC2)c2c(Cl)cccc21` [2-23], the pIC50 was 7.96.

Take `Cn1cc(C(=O)CCC2CCN(Cc3cccc(F)c3)CC2)c2cc(F)ccc21` [1-315, 1-Methyl-3-{3-[1-(3-fluorobenzyl)-4-piperidyl]propionyl}-5-fluoroindole oxalate]: the pIC50 was 8.64.

In the case of `Cn1cc(C(=O)CCC2CCN(Cc3cccc(Cl)c3)CC2)c2cc(Cl)ccc21` [Compound No. 1-304, 1-Methyl-3-{3-[1-(3-chlorobenzyl)-4-piperidyl]propionyl}-5-chloroindole hydrochloride], the pIC50 was 8.12.

For the compound `Cn1cc(C(=O)CCC2CCN(Cc3cccc(F)c3)CC2)c2cc(Cl)ccc21` [Compound No. 1-309, 1-Methyl-3-{3-[1-(3-fluorobenzyl)-4-piperidyl]propionyl}-5-chloroindole], the pIC50 is 8.09.

Turning to `Cc1ccc2c(C(=O)C=CC3CCN(Cc4ccccc4)CC3)nn(C)c2c1` [Compound No. 2-9], the pIC50 is 7.85. Against the preceding compound, the pIC50 is 0.24 log units lower.

As to `Cc1ccc2c(c1)c(C(=O)CCC1CCN(Cc3ccccc3)CC1)nn2C` [2-8], the pIC50 was 7.89.

As for `Cn1nc(C(=O)CCC2CCN(Cc3ccccc3)CC2)c2ccccc21` [Compound No. 2-3, 1-Methyl-3-[3-(1-benzyl-4-piperidyl)propionyl]indazole hydrochloride], the pIC50 was 7.92.

`Cn1cc(C(=O)CCC2CCN(Cc3cccc(F)c3)CC2)c2cc(F)ccc21` [Compound No. 1-314, 1-Methyl-3-{3-[1-(3-fluorobenzyl)-4-piperidyl]propionyl}-5-fluoroindole hydrochloride] gave a pIC50 of 8.47.

In turn, `Cn1cc(C(=O)CCC2CCN(Cc3ccccc3)CC2)c2cc(Cl)ccc21` [Compound No. 1-28, 1-Methyl-3-[3-(1-benzyl-4-piperidyl)propionyl]-5-chloroindole] gave a negative-log IC50 (pIC50) of 8.40. This pIC50 and that of the compound before are within 0.2 log units of each other.

`Cn1nc(C(=O)CCC2CCN(Cc3ccccc3)CC2)c2c(Cl)cccc21` [2-24] had a pIC50 of 8.00.

`Cn1cc(C(=O)CCC2CCN(Cc3ccccc3)CC2)c2cc(F)ccc21` [Compound No. 1-40, 1-Methyl-3-[3-(1-benzyl-4-piperidyl)propionyl]-5-fluoroindole] had a pIC50 of 8.40.

A word on the pIC50: it is the IC50 on a negative log10 scale, so that one unit is a factor of ten.

The values are drawn from patent EP0562832A1, “Indole and indazole derivatives, for the treatment and prophylaxis of cerebral disorders, their preparation and their use” (priority 1992, dated 1993).
